Read-outs that look alike come from different tables or passages of the source.
How the values were obtained:
[1] = In vitro rat microsomal stability assay; assay type: in vitro ADME, rat (Sprague-Dawley); conditions: Sprague-Dawley, rat, microsomes, 0.5 h, 0.5 μM, pH 7.4
Summary of the method: (§1)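 Sprague-Dawley rat or human liver microsomes; 37° C.; NADPH cofactor, also spiked into time-zero samples.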

[2] = biological target: T1, human TRPV3 (Homo sapiens, UniProt Q8NET8); assay: In vitro antagonism of recombinant human TRPV3 activation (FLIPR Tetra calcium assay); assay type: cell-based; conditions: HEK293 cells stably expressing human TRPV3, agonist 2-APB at 80 μM
T1 construct: expressed in transfected cells
T1 sequence (Q8NET8 1-790): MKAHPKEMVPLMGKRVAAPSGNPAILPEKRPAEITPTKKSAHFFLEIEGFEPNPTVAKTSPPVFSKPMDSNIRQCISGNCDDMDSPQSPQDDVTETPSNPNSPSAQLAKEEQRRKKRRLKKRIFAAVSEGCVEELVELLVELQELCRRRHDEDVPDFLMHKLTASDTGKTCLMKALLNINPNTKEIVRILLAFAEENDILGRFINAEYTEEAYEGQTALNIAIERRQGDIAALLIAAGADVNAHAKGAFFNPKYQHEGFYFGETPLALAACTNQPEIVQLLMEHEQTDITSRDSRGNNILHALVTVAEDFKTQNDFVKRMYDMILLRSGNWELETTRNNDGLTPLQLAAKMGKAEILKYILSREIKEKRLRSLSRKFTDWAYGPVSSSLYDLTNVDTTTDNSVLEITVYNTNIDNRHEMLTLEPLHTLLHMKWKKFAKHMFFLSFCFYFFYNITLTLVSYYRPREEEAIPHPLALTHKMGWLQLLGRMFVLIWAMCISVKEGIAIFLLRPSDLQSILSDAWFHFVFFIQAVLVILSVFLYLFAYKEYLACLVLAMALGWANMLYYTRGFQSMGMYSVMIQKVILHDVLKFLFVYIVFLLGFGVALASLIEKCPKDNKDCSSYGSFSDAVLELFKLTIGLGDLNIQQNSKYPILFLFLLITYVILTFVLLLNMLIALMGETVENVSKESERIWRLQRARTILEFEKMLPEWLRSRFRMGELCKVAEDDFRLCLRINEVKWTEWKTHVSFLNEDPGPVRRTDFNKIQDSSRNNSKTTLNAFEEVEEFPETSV
Summary of the method: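 Calcium flux read over a 10 min run: compound added at 10 s to Calcium-4-loaded human TRPV3-HEK293 cells, agonist 2-APB (80 μM, its EC80) after 3 min. IC50 derived from peak-minus-baseline signal as percentage of uninhibited 2-APB response, typically averaged over at least two runs.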

[3] = In vitro human microsomal stability assay; assay type: in vitro ADME; conditions: human, microsomes, 0.5 h, 0.5 μM, pH 7.4
Summary of the method: as §1

[4] = actual measured value shown parenthetically, in most cases average of at least two runs, read-out: IC50

N[C@H]1CCC[C@H]1[C@@H](O)C1(c2ccccc2F)CCC1 [Example 226, (R)-[(1R,2S)-2-aminocyclopentyl][1-(2-fluorophenyl)cyclobutyl]methanol]
RAT MICROSOMAL STABILITY (% REMAINING AFTER 30 MINUTES) [1]: <0.01% | IC50 [2, 4]: 0.79 µM | HUMAN MICROSOMAL STABILITY (% REMAINING AFTER 30 MINUTES) [3]: >85%

N[C@@H]1CCC[C@H]1[C@@H](O)C1(c2cccc(C(F)(F)F)c2)CCC1 [Example 227, (R)-[(1R,2R)-2-aminocyclopentyl]{1-[3-(trifluoromethyl)phenyl]-cyclobutyl}methanol]
RAT MICROSOMAL STABILITY (% REMAINING AFTER 30 MINUTES) [1]: 42% | IC50 [2, 4]: 0.5 µM | HUMAN MICROSOMAL STABILITY (% REMAINING AFTER 30 MINUTES) [3]: >85%

N[C@H]1CCC[C@H]1[C@@H](O)C1(c2ccc(OC(F)(F)F)cc2)CCC1 [Example 229, (R)-[(1R,2S)-2-aminocyclopentyl]{1-[4-(trifluoromethoxy)phenyl]-cyclobutyl}methanol]
RAT MICROSOMAL STABILITY (% REMAINING AFTER 30 MINUTES) [1]: 80% | IC50 [2, 4]: 4.58 µM | HUMAN MICROSOMAL STABILITY (% REMAINING AFTER 30 MINUTES) [3]: >85%

O/N=C(\c1ccccn1)C1(c2ccc(Cl)c(Cl)c2)CCC1 [Example 230, (Z)-[1-(3,4-dichlorophenyl)cyclobutyl](pyridin-2-yl)methanone oxime]
RAT MICROSOMAL STABILITY (% REMAINING AFTER 30 MINUTES) [1]: 30% | IC50 [2, 4]: > 10 µM | HUMAN MICROSOMAL STABILITY (% REMAINING AFTER 30 MINUTES) [3]: 33%

O[C@H](c1ccccn1)C1(c2ccc(Cl)c(Cl)c2)CC1 [Example 231, (S)-[1-(3,4-dichlorophenyl)cyclopropyl](pyridin-2-yl)methanol]
RAT MICROSOMAL STABILITY (% REMAINING AFTER 30 MINUTES) [1]: 17% | IC50 [2, 4]: 0.54 µM | HUMAN MICROSOMAL STABILITY (% REMAINING AFTER 30 MINUTES) [3]: 4.0%

OC(c1ccccn1)C1(c2cccc(C(F)(F)F)n2)CCC1 (stereo not shown) [Example 234, pyridin-2-yl{1-[6-(trifluoromethyl)pyridin-2-yl]cyclobutyl}methanol]
RAT MICROSOMAL STABILITY (% REMAINING AFTER 30 MINUTES) [1]: 23% | IC50 [2, 4]: 5.36 µM | HUMAN MICROSOMAL STABILITY (% REMAINING AFTER 30 MINUTES) [3]: 19%

OC(c1ccccn1)C1(c2cccc(OC(F)(F)F)c2)CC2(C1)OCCO2 (stereo not shown) [Example 235, pyridin-2-yl{2-[3-(trifluoromethoxy)phenyl]-5,8-dioxaspiro[3.4]oct-2-yl}-methanol]
RAT MICROSOMAL STABILITY (% REMAINING AFTER 30 MINUTES) [1]: <0.01% | IC50 [2, 4]: 3.32 µM | HUMAN MICROSOMAL STABILITY (% REMAINING AFTER 30 MINUTES) [3]: 20%

O=C1CC(c2cccc(OC(F)(F)F)c2)(C(O)c2ccccn2)C1 (stereo not shown) [Example 237, 3-[hydroxy(pyridin-2-yl)methyl]-3-[3-(trifluoromethoxy)phenyl]-cyclobutanone]
RAT MICROSOMAL STABILITY (% REMAINING AFTER 30 MINUTES) [1]: 50% | IC50 [2, 4]: 3.66 µM | HUMAN MICROSOMAL STABILITY (% REMAINING AFTER 30 MINUTES) [3]: 51%

O[C@H](c1ccccn1)C1(c2cccc(C(F)(F)F)n2)CCC1 [Example 238, (S)-pyridin-2-yl{1-[6-(trifluoromethyl)pyridin-2-yl]cyclobutyl}methanol]
RAT MICROSOMAL STABILITY (% REMAINING AFTER 30 MINUTES) [1]: 21% | IC50 [2, 4]: 3.91 µM | HUMAN MICROSOMAL STABILITY (% REMAINING AFTER 30 MINUTES) [3]: 7.1%

O[C@H](c1ccccn1)C1(c2ccnc(C(F)(F)F)c2)CCC1 [Example 240, (S)-pyridin-2-yl{1-[2-(trifluoromethyl)pyridin-4-yl]cyclobutyl}methanol]
RAT MICROSOMAL STABILITY (% REMAINING AFTER 30 MINUTES) [1]: 38% | IC50 [2, 4]: 0.71 µM | HUMAN MICROSOMAL STABILITY (% REMAINING AFTER 30 MINUTES) [3]: 50%

OC(c1ccccn1)C1(c2cccc(C(F)(F)F)c2)CC2(C1)OCCO2 (stereo not shown) [Example 242, pyridin-2-yl{2-[3-(trifluoromethyl)phenyl]-5,8-dioxaspiro[3.4]oct-2-yl}-methanol]
RAT MICROSOMAL STABILITY (% REMAINING AFTER 30 MINUTES) [1]: <0.01% | IC50 [2, 4]: 5.1 µM | HUMAN MICROSOMAL STABILITY (% REMAINING AFTER 30 MINUTES) [3]: 45%

O=C1CC(c2cccc(C(F)(F)F)c2)(C(O)c2ccccn2)C1 (stereo not shown) [Example 245, 3-[hydroxy(pyridin-2-yl)methyl]-3-[3-(trifluoromethyl)phenyl]-cyclobutanone]
RAT MICROSOMAL STABILITY (% REMAINING AFTER 30 MINUTES) [1]: 72% | IC50 [2, 4]: 3.65 µM | HUMAN MICROSOMAL STABILITY (% REMAINING AFTER 30 MINUTES) [3]: 57%

OC(c1ccccn1)C1(C2(O)CCOC2)CCC1 (stereo not shown) [Example 246, 3-{1-[hydroxy(pyridin-2-yl)methyl]cyclobutyl}tetrahydrofuran-3-ol]
RAT MICROSOMAL STABILITY (% REMAINING AFTER 30 MINUTES) [1]: 59% | IC50 [2, 4]: > 20 µM | IC50 ([2]; reported range, read-out: IC50 (range class)): > 20 µM | HUMAN MICROSOMAL STABILITY (% REMAINING AFTER 30 MINUTES) [3]: 71%

ON=C1CC(c2ccc(OC(F)(F)F)cc2)([C@H](O)c2ccccn2)C1 (stereo partly drawn) [Example 248, (S)-{3-(hydroxyimino)-1-[4-(trifluoromethoxy)phenyl]cyclobutyl}(pyridin-2-yl)methanol]
RAT MICROSOMAL STABILITY (% REMAINING AFTER 30 MINUTES) [1]: 29% | IC50 [2, 4]: 1.17 µM | HUMAN MICROSOMAL STABILITY (% REMAINING AFTER 30 MINUTES) [3]: 70%

CON=C1CC(c2ccc(OC(F)(F)F)cc2)([C@H](O)c2ccccn2)C1 (stereo partly drawn) [Example 249, (S)-{3-(methoxyimino)-1-[4-(trifluoromethoxy)phenyl]cyclobutyl}(pyridin-2-yl)methanol]
RAT MICROSOMAL STABILITY (% REMAINING AFTER 30 MINUTES) [1]: 3.2% | IC50 [2, 4]: 3.93 µM | HUMAN MICROSOMAL STABILITY (% REMAINING AFTER 30 MINUTES) [3]: 61%

Cc1ccccc1CC1(C(O)c2ccccn2)CCC1 (stereo not shown) [Example 253, [1-(2-methylbenzyl)cyclobutyl](pyridin-2-yl)methanol]
RAT MICROSOMAL STABILITY (% REMAINING AFTER 30 MINUTES) [1]: 0.017% | IC50 [2, 4]: 3.4 µM | HUMAN MICROSOMAL STABILITY (% REMAINING AFTER 30 MINUTES) [3]: 0.21%

OC(c1ccccn1)C1(Cc2cccc(F)c2)CCC1 (stereo not shown) [Example 254, [1-(3-fluorobenzyl)cyclobutyl](pyridin-2-yl)methanol]
RAT MICROSOMAL STABILITY (% REMAINING AFTER 30 MINUTES) [1]: 0.57% | IC50 [2, 4]: 4.22 µM | HUMAN MICROSOMAL STABILITY (% REMAINING AFTER 30 MINUTES) [3]: 1.1%

OC(c1ccccn1)C1(c2ccc(F)c(Cl)c2)CC2(C1)OCCO2 (stereo not shown) [Example 255, [2-(3-chloro-4-fluorophenyl)-5,8-dioxaspiro[3.4]oct-2-yl](pyridin-2-yl)-methanol]
RAT MICROSOMAL STABILITY (% REMAINING AFTER 30 MINUTES) [1]: <0.01% | IC50 [2, 4]: 5.49 µM | HUMAN MICROSOMAL STABILITY (% REMAINING AFTER 30 MINUTES) [3]: 54%

O=C1CC(c2ccc(F)c(Cl)c2)(C(O)c2ccccn2)C1 (stereo not shown) [Example 258, 3-(3-chloro-4-fluorophenyl)-3-[hydroxy(pyridin-2-yl)methyl]cyclobutanone]
RAT MICROSOMAL STABILITY (% REMAINING AFTER 30 MINUTES) [1]: 53% | IC50 [2, 4]: 11 µM | HUMAN MICROSOMAL STABILITY (% REMAINING AFTER 30 MINUTES) [3]: 70%

O[C@H](c1ccccn1)[C@]1(c2cccc(C(F)(F)F)c2)C[C@H](O)C1 [Example 259, cis-3-[(S)-hydroxy(pyridin-2-yl)methyl]-3-[3-(trifluoromethyl)phenyl]-cyclobutanol]
RAT MICROSOMAL STABILITY (% REMAINING AFTER 30 MINUTES) [1]: 73% | IC50 [2, 4]: 0.47 µM | HUMAN MICROSOMAL STABILITY (% REMAINING AFTER 30 MINUTES) [3]: 76%

OC(c1ccccn1)C1(C2=CCC(F)(F)CC2)CCC1 (stereo not shown) [Example 260, [1-(4,4-difluorocyclohex-1-en-1-yl)cyclobutyl](pyridin-2-yl)methanol]
RAT MICROSOMAL STABILITY (% REMAINING AFTER 30 MINUTES) [1]: <0.01% | IC50 [2, 4]: 5.32 µM | HUMAN MICROSOMAL STABILITY (% REMAINING AFTER 30 MINUTES) [3]: 12%

OC(c1ccccn1)C1(C2=CCCC(C(F)(F)F)C2)CCC1 (stereo not shown) [Example 261, pyridin-2-yl{1-[5-(trifluoromethyl)cyclohex-1-en-1-yl]cyclobutyl}methanol]
RAT MICROSOMAL STABILITY (% REMAINING AFTER 30 MINUTES) [1]: <0.01% | IC50 [2, 4]: 1.27 µM | HUMAN MICROSOMAL STABILITY (% REMAINING AFTER 30 MINUTES) [3]: 0.01%

O[C@H](c1ccccn1)[C@]1(c2cccc(C(F)(F)F)c2)C[C@@H](O)C1 [Example 264, trans-3-[(S)-hydroxy(pyridin-2-yl)methyl]-3-[3-(trifluoromethyl)phenyl]-cyclobutanol]
RAT MICROSOMAL STABILITY (% REMAINING AFTER 30 MINUTES) [1]: 59% | IC50 [2, 4]: 0.23 µM | HUMAN MICROSOMAL STABILITY (% REMAINING AFTER 30 MINUTES) [3]: 56%
